Laboratory results: PubChem BioAssay (NCI)
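All cell lines were grown in 96-well plates and treated with compound for 48 hours. GI50 marks 50% less growth. Definition used: TGI = concentration required for complete inhibition of growth.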

How the values were obtained:
Experiment in all cases: DTP human tumour cell line panel, 48 h
SN12C renal = system: SN12C renal
UACC-257 melanoma = system: UACC-257 melanoma
LOX IMVI melanoma = system: LOX IMVI melanoma
SNB-75 CNS = system: SNB-75 CNS
MOLT-4 leukemia = system: MOLT-4 leukemia
M14 melanoma = system: M14 melanoma
NCI-H522 lung = system: NCI-H522 lung
SNB-19 CNS = system: SNB-19 CNS
PC-3 prostate = system: PC-3 prostate
RPMI-8226 leukemia = system: RPMI-8226 leukemia

SMILES | GI50 (SN12C renal) [µM] | TGI (SN12C renal) [µM] | GI50 (UACC-257 melanoma) [µM] | TGI (UACC-257 melanoma) [µM] | GI50 (LOX IMVI melanoma) [µM] | TGI (LOX IMVI melanoma) [µM] | GI50 (SNB-75 CNS) [µM] | TGI (SNB-75 CNS) [µM] | GI50 (MOLT-4 leukemia) [µM] | TGI (MOLT-4 leukemia) [µM] | GI50 (M14 melanoma) [µM] | TGI (M14 melanoma) [µM] | GI50 (NCI-H522 lung) [µM] | TGI (NCI-H522 lung) [µM] | GI50 (SNB-19 CNS) [µM] | TGI (SNB-19 CNS) [µM] | GI50 (PC-3 prostate) [µM] | TGI (PC-3 prostate) [µM] | GI50 (RPMI-8226 leukemia) [µM] | TGI (RPMI-8226 leukemia) [µM]
CCC[CH2][Sn]1([CH2]CCC)[O]C(=O)C(C(C)C)N=Cc2ccccc2[O]1 (centres undefined) | 0.288 | 0.987 | 0.143 | 0.343 | 0.163 | 0.401 | 0.235 | 0.776 | 0.236 | 1.04 | 0.267 | 0.939 | 0.0442 | 0.168 | 0.214 | 0.645 |  |  |  | 
CCOC(=O)c1cc(/C(=N\O)c2cc(OC)c(OC)c(OC)c2)n2cc(C)cc(C)c12 | 3.86 | > 100 |  |  | 2.4 | 7.68 | 1.48 | 4.48 |  |  | 2.08 | 6.45 |  |  | 4.57 | > 100 | 3.33 | > 100 | 2.46 | 5.79
O=C(O)CP(=S)(S)c1ccccc1 (centres undefined) |  | > 100 |  | > 100 |  | > 100 |  |  |  | > 100 |  | > 100 |  | > 100 |  | > 100 |  |  |  | 
Cc1cccc(NC(=O)C(=O)Cc2nc3ccccc3[nH]c2=O)c1C |  | > 100 |  | > 100 |  | > 100 |  | > 100 |  |  |  | > 100 |  | > 100 |  | > 100 |  |  |  | 
CN(C)CC/C(=N\Nc1c(Cl)cccc1Cl)c1ccccc1 |  | 92.7 |  | 32.7 |  | 31 |  | 55.6 |  | 71.7 |  | 34.2 |  | 33.9 |  | > 100 |  |  |  | 46.8
CC(=O)[CH-]C(=O)c1ccccc1.CC(=O)[CH-]C(=O)c1ccccc1.O=C([O-])c1ccc([O-])cc1.O=C([O-])c1ccc([O-])cc1.[Ti+4] | 51.3 | > 100 |  |  | 28.9 | > 100 | 29.1 | > 100 | 23.8 | 79.3 | 40.2 | > 100 | 22.8 | 70.9 | 52.3 | > 100 |  |  | 20.7 | 62.8
COC(=O)c1cccc2cccc(C(=O)Nc3ccc(C)cc3C)c12 |  | > 100 |  | > 100 |  | > 100 |  | > 100 |  | > 100 |  | > 100 |  | > 100 |  | > 100 |  |  |  | > 100
COC(=O)c1cc(Br)c(Br)n1C |  | > 100 |  | > 100 |  | > 100 |  | > 100 |  | > 100 |  | > 100 |  | > 100 |  | > 100 |  |  |  | 
CC1=C2C(=O)O[C@@H](c3ccoc3)[C@]2(C)CCC1 |  |  |  | > 100 |  | > 100 |  | > 100 |  | > 100 |  | > 100 |  | > 100 |  | > 100 |  |  |  | > 100
COc1ccc2c(c1)CCC1C3(CCCC21C)OCCO3 (centres undefined) |  | 30.5 |  | 62.1 |  | 30.4 |  | 60.3 |  | 53.5 |  | 36.3 |  | 37.4 |  | > 100 |  |  |  | 61.2
Cc1ccc2nc3c(C(=O)NCCN(C)C)cccc3nc2c1 |  | 27.9 |  | 14.1 |  | 5.19 |  | 42.9 |  | 6.29 |  | > 33.7 |  | > 100 |  | 46.3 |  |  |  | 40.8
CC[O-].CC[O-].O=C1c2ccccc2C(=O)c2c(O)ccc([O-])c21.O=C1c2ccccc2C(=O)c2c(O)ccc([O-])c21.[Ti+4] |  | > 100 |  | > 100 |  | > 100 |  | > 100 |  | > 100 |  | > 100 |  | > 100 |  | > 100 |  |  |  | > 100
CCOC(=O)Sc1ncnc2nc[nH]c12 | 7.94 | > 100 | 7.2 | > 100 | 0.348 | > 100 | 0.747 | > 100 | 1.58 | 6.57 | 0.408 | > 100 | 3.33 | > 100 | 85 | > 100 | 4.07 | > 100 |  | 
Cc1cc(C)nc(NS(=O)(=O)c2ccc(Nc3c4ccccc4nc4c(C(=O)Nc5ccc(S(=O)(=O)Nc6cc(C)on6)cc5)cccc34)cc2)n1 |  | 66.5 |  | 66.6 |  | 37.1 |  | 69 |  | 64 |  | 41.7 |  | 29 |  | 52.1 |  |  |  | 56.3
O=C(O)CN(c1ccccc1)S(=O)(=O)c1ccccc1[N+](=O)[O-] |  | > 100 |  | > 100 |  | > 100 |  | > 100 |  | > 100 |  | > 100 |  | > 100 |  | > 100 |  |  |  | > 100
O=C1NC(=O)c2ccc([N+](=O)[O-])c3cccc1c23 |  | 32.1 |  | 33.1 |  |  |  | 85.9 |  |  |  | 28.4 |  | 6.11 |  | 33.7 |  | 32 |  | 37.7
N#Cc1nc(C2OC(COC(=O)c3ccccc3)C(OC(=O)c3ccccc3)C2OC(=O)c2ccccc2)oc1N (centres undefined) |  | > 100 |  | > 100 |  | > 100 |  | > 100 |  | > 100 |  | > 100 |  | 65.2 |  | > 100 |  |  |  | 5.63
Cc1ccccc1N(CCC#N)C1=NN(C(=O)CC(=O)Nc2ccccc2)C(c2ccccc2)C1 (centres undefined) |  | > 100 |  | > 100 |  |  |  | 96.7 |  | > 100 |  | > 100 |  | > 100 |  | > 100 |  |  |  | > 100
CC(C)(C)OC(=O)Cc1ccc2c(ccn2Cc2ccccc2)c1 |  | > 100 |  | > 100 |  | > 100 |  | > 100 |  | > 100 |  | > 100 |  | > 100 |  | > 100 |  |  |  | 
C=CCCCCCCCCC(=O)NS(=O)(=O)c1ccccc1 |  | > 100 |  | > 100 |  | > 100 |  | > 100 |  | > 100 |  | > 100 |  | > 100 |  | > 100 |  |  |  | > 100
